Earlier results as cited in patent US20100255118A1, “ORAL ZINC MEDICANTS USEFUL FOR SAFELY LOWERING FREE COPPER ABSORPTION AND FREE COPPER LEVELS” (priority 2007, published 2010).

Columns and labels:
[1] = infant rhesus monkeys
[2] = adequate intake by mothers prior to pregnancy
[3] = Wilson's patients
[4] = humans, oral dose of Cu64 as copper acetate

Question: Which copper absorption [1] does the source give for [67Cu] [Cu^67] here?
Answer: Its copper absorption is 50-70%.

Question: With Nc1nc2ncc(CNc3ccc(C(=O)N[C@@H](CCC(=O)O)C(=O)O)cc3)nc2c(=O)[nH]1 [folic acid] as the molecule, how does the “reduction of the incidence of NTDs” value [2] read?
Answer: Its value is “up to 70%”.

Question: For [Zn] [zinc], which “time to achieve intestinal metallothionein induction and a negative copper balance” value [3] is on record?
Answer: The value was “approximately two”.

Question: And the “copper balance induced (average)” value ([3]; at the two week point)?
Answer: The value was −0.35 mg daily.

Question: What does the source list for copper acetate?
Answer: oral dose absorbed from the gastrointestinal tract [4]: about 65%; oral dose absorbed from the gastrointestinal tract (range) ([4]; range): 15-97%
